{"source": "PubChem BioAssay AID2060505", "about": "(Molecular Pharmacology Branch, DTP, NCI, 2025)", "system": "633275-114-R-J1-PDC complex spheroids, viability", "experiment": "Anticancer human tumor 633275-114-R-J1-PDC patient-derived endometrial adenocarcinoma cell line growth inhibition [GQUAD]", "conditions": "for IC50: curve of first compound; for viability, T/C: stronger effect = lower value", "how_it_was_run": "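Multi-cell-type spheroids of tumor cells with HUVEC and mesenchymal stem cells, treated with drug combinations. Concentrations descend in half-log steps from near clinical Cmax, or from 10 microM where Cmax is unknown; viability read-out.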"}
{"compound": "C#Cc1c(F)ccc2cc(O)cc(-c3ncc4c(N5CC6CCC(C5)N6)nc(OCC56CCCN5CC(F)C6)nc4c3F)c12", "note": "(configuration not stated) + Cc1cnc(CNC(=O)c2c(=O)c3ccc(N4CCCN(C)CC4)nc3n3c2sc2ccccc23)cn1;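 further: spheroids exposed to the agents for seven days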;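 on viability, T/C: percent of DMSO vehicle control viability which is 100%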", "values": [{"measurement": "IC50", "setting": "second compound 0.0316 µM", "value": 3910, "unit": "nM"}, {"measurement": "IC50", "setting": "second compound 0.1 µM", "value": 157, "unit": "nM"}, {"measurement": "IC50", "setting": "second compound 0.316 µM", "value": "< 31.6", "unit": "nM"}, {"measurement": "IC50", "setting": "second compound 1 µM", "value": "< 31.6", "unit": "nM"}, {"measurement": "IC50", "setting": "second compound 3.16 µM", "value": "< 31.6", "unit": "nM"}, {"measurement": "IC50", "setting": "second compound 10 µM", "value": "< 31.6", "unit": "nM"}, {"measurement": "viability, T/C", "setting": "second compound 0.0316 µM, first compound 0.0316 µM", "value": 68.9, "unit": "%"}, {"measurement": "viability, T/C", "setting": "second compound 0.0316 µM, first compound 0.1 µM", "value": 72.5, "unit": "%"}, {"measurement": "viability, T/C", "setting": "second compound 0.0316 µM, first compound 0.316 µM", "value": 65.2, "unit": "%"}, {"measurement": "viability, T/C", "setting": "second compound 0.0316 µM, first compound 1 µM", "value": 58.7, "unit": "%"}, {"measurement": "viability, T/C", "setting": "second compound 0.0316 µM, first compound 3.16 µM", "value": 47.1, "unit": "%"}, {"measurement": "viability, T/C", "setting": "second compound 0.0316 µM, first compound 10 µM", "value": 45.6, "unit": "%"}, {"measurement": "viability, T/C", "setting": "second compound 0.1 µM, first compound 0.0316 µM", "value": 52.3, "unit": "%"}, {"measurement": "viability, T/C", "setting": "second compound 0.1 µM, first compound 0.1 µM", "value": 49.7, "unit": "%"}, {"measurement": "viability, T/C", "setting": "second compound 0.1 µM, first compound 0.316 µM", "value": 52.1, "unit": "%"}, {"measurement": "viability, T/C", "setting": "second compound 0.1 µM, first compound 1 µM", "value": 44.7, "unit": "%"}, {"measurement": "viability, T/C", "setting": "second compound 0.1 µM, first compound 3.16 µM", "value": 39.8, "unit": "%"}, {"measurement": "viability, T/C", "setting": "second compound 0.1 µM, first compound 10 µM", "value": 38.9, "unit": "%"}, {"measurement": "viability, T/C", "setting": "second compound 0.316 µM, first compound 0.0316 µM", "value": 47.1, "unit": "%"}, {"measurement": "viability, T/C", "setting": "second compound 0.316 µM, first compound 0.1 µM", "value": 49.8, "unit": "%"}, {"measurement": "viability, T/C", "setting": "second compound 0.316 µM, first compound 0.316 µM", "value": 43.7, "unit": "%"}, {"measurement": "viability, T/C", "setting": "second compound 0.316 µM, first compound 1 µM", "value": 36.4, "unit": "%"}, {"measurement": "viability, T/C", "setting": "second compound 0.316 µM, first compound 3.16 µM", "value": 37.2, "unit": "%"}, {"measurement": "viability, T/C", "setting": "second compound 0.316 µM, first compound 10 µM", "value": 26.8, "unit": "%"}, {"measurement": "viability, T/C", "setting": "second compound 1 µM, first compound 0.0316 µM", "value": 41.7, "unit": "%"}, {"measurement": "viability, T/C", "setting": "second compound 1 µM, first compound 0.1 µM", "value": 42.1, "unit": "%"}, {"measurement": "viability, T/C", "setting": "second compound 1 µM, first compound 0.316 µM", "value": 42.1, "unit": "%"}, {"measurement": "viability, T/C", "setting": "second compound 1 µM, first compound 1 µM", "value": 36.3, "unit": "%"}, {"measurement": "viability, T/C", "setting": "second compound 1 µM, first compound 3.16 µM", "value": 30.9, "unit": "%"}, {"measurement": "viability, T/C", "setting": "second compound 1 µM, first compound 10 µM", "value": 26.8, "unit": "%"}, {"measurement": "viability, T/C", "setting": "second compound 3.16 µM, first compound 0.0316 µM", "value": 38.4, "unit": "%"}, {"measurement": "viability, T/C", "setting": "second compound 3.16 µM, first compound 0.1 µM", "value": 36.2, "unit": "%"}, {"measurement": "viability, T/C", "setting": "second compound 3.16 µM, first compound 0.316 µM", "value": 34.4, "unit": "%"}, {"measurement": "viability, T/C", "setting": "second compound 3.16 µM, first compound 1 µM", "value": 31.5, "unit": "%"}, {"measurement": "viability, T/C", "setting": "second compound 3.16 µM, first compound 3.16 µM", "value": 27.7, "unit": "%"}, {"measurement": "viability, T/C", "setting": "second compound 3.16 µM, first compound 10 µM", "value": 24.3, "unit": "%"}, {"measurement": "viability, T/C", "setting": "second compound 10 µM, first compound 0.0316 µM", "value": 31.3, "unit": "%"}, {"measurement": "viability, T/C", "setting": "second compound 10 µM, first compound 0.1 µM", "value": 32.9, "unit": "%"}, {"measurement": "viability, T/C", "setting": "second compound 10 µM, first compound 0.316 µM", "value": 26.5, "unit": "%"}, {"measurement": "viability, T/C", "setting": "second compound 10 µM, first compound 1 µM", "value": 27.2, "unit": "%"}, {"measurement": "viability, T/C", "setting": "second compound 10 µM, first compound 3.16 µM", "value": 23.7, "unit": "%"}, {"measurement": "viability, T/C", "setting": "second compound 10 µM, first compound 10 µM", "value": 23.1, "unit": "%"}]}
